{"source": "paper PMC3747139", "about": "(PLoS ONE, 2013)", "key": {"HQF DNA [d(T2AG3)4]": {"test_system": "HQF DNA [d(T2AG3)4]", "experiment": "SYBR Green melting study with HQF DNA", "type": "binding, human", "details": "melting temperature of HQF DNA (5 µM) in presence of 1 µM ligand", "experimental": "When quadruplex DNA melts to form ssDNA structure, SG fluorescence intensity gradually reduces as SG has no binding to ssDNA. Each time, 5 µM of HQF DNA [d(T2AG3)4)], 5 µM of dsDNA (prepared by mixing equal concentration of poly-dA-dT and poly-dT-dA), 5 µM ssDNA ( poly dT alone) and 1 µM of each ligand was incubated at 4°C for 16 h, and used for melting studies. […] Affinity, stoichiometry and thermodynamic parameters for quadruplex-ligand complex were studied with 60 µM of ligand and 10 µM of HQF DNA using Microcal VP-ITC (Northampton, MA, USA). Ligand addition to G-quadruplex DNA was made every 180 seconds. Titration experiments were performed thrice and blank correction was made each time to minimize error."}, "MCF-7": {"test_system": "MCF-7", "experiment": "Cell count assay (trypan blue)", "type": "cell-based, human", "experimental": "(§1) Normal and tumor cell lines were seeded at 20000–40000 cells/cm^2 with 0.2 mL/cm^2 media and incubated for 48 h at 37°C, 6% CO2, 95% relative humidity. […] After 24 h and 48 h of incubation, cells were washed with 300 µl PBS or 0.02% EDTA, trypsinized, followed by harvesting at 37°C. 200 µl cell suspension was transferred into 1.5 ml microcentrifuge tube. To the cell suspension, 300 µl PBS followed by 500 µl of 0.4% trypan blue solution was added. To get the homogenised solution, the microcentrifuge tube was gently tapped for 5 min, 20 µl of cell suspension was loaded in to a chamber of the haemocytometer."}, "B16F10": {"test_system": "B16F10", "experiment": "Cell count assay (trypan blue)", "type": "cell-based, human", "experimental": "as §1"}, "A549": {"test_system": "A549", "experiment": "Cell count assay (trypan blue)", "type": "cell-based, human", "experimental": "as §1"}, "[1]": {"experiment": "Cell count assay (trypan blue)", "type": "cell-based", "set-up": "concentration or dose not given beside the values", "details": "human; for viability at 24 h: read-out: Number of viable cells after 24 h of ligand treatment; for viability at 48 h: read-out: Number of viable cells after 48 h of ligand treatment", "experimental": "as §1"}}, "note": "Read-outs that look alike come from different tables or passages of the source. Marks after values point to notes of the source that are not given here.", "data": [{"smiles": "c1ccc(-c2nnn(CC3CCCCO3)c2-c2ccccc2)cc1", "note": "(stereo not shown) [Ligand L7, 4,5-Diphenyl-1-((tetrahydro-2H-pyran-2-yl)methyl)-1H-1,2,3-triazole]", "values": [{"measurement": "Tm", "setting": "HQF DNA [d(T2AG3)4]", "value": "29 ^o C"}, {"measurement": "Number of viable cells after 24 h of ligand treatment", "setting": "MCF-7; MCF-7, 24 h", "value": "+ (Viable cells in the range of 80%–90%)"}, {"measurement": "Number of viable cells after 48 h of ligand treatment", "setting": "MCF-7; MCF-7, 48 h", "value": "++ (Viable cells in the range of 50%–60%)"}, {"measurement": "Number of viable cells after 24 h of ligand treatment", "setting": "B16F10; B16F10, 24 h", "value": "+ (Viable cells in the range of 80%–90%)"}, {"measurement": "Number of viable cells after 48 h of ligand treatment", "setting": "B16F10; B16F10, 48 h", "value": "++ (Viable cells in the range of 50%–60%)"}, {"measurement": "Number of viable cells after 24 h of ligand treatment", "setting": "A549; A549, 24 h", "value": "+/+ (Viable cells in the range of 80%–90%)"}, {"measurement": "Number of viable cells after 48 h of ligand treatment", "setting": "A549; A549, 48 h", "value": "+/+ (Viable cells in the range of 80%–90%)"}, {"measurement": "viability at 24 h", "setting": "[1]; CRL-2115 cells (normal cell line), CRL-2115, 24 h", "value": "80 to 90", "unit": "%"}, {"measurement": "viability at 48 h", "setting": "[1]; CRL-2115 cells (normal cell line), CRL-2115, 48 h", "value": "80 to 90", "unit": "%"}, {"measurement": "viability at 24 h", "setting": "[1]; CRL-2120 cells (normal cell line), CRL-2120, 24 h", "value": "80 to 90", "unit": "%"}, {"measurement": "viability at 48 h", "setting": "[1]; CRL-2120 cells (normal cell line), CRL-2120, 48 h", "value": "50 to 60", "unit": "%"}, {"measurement": "viability at 24 h", "setting": "[1]; NCM-460 cells (normal cell line), NCM-460, 24 h", "value": "80 to 90", "unit": "%"}, {"measurement": "viability at 48 h", "setting": "[1]; NCM-460 cells (normal cell line), NCM-460, 48 h", "value": "50 to 60", "unit": "%"}]}]}
